In patent US11230526B1, “Cylcoalkenyl derivatives useful as agonists of the GPR120 and/or GPR40 receptors” (Janssen Pharmaceutica NV, priority 2018, dated 2022):

How the values were obtained:
Assay type in all cases: cell-based
[1] = target: T1, short form of the GPR120 receptor (Homo sapiens, UniProt Q5NUL3); test: Human GPR120 DiscoveRx PathHunter Beta-Arrestin assay, Procedure β-arrestin B
T1 construct: host or cells: PathHunter CHO-K1 GPR120S β-Arrestin Cell Line
Excerpt: Human GPR120 DiscoveRx PathHunter® Beta-Arrestin Assay Assay Principle:
The binding of an agonist (medium/long chain fatty acids or small molecule agonists) to the G-protein-coupled receptor GPR120 activates phospholipase C, leading to release of intracellular Ca^+2 through the generation of inositol 1,4,5-trisphosphate (InsP3 or IP3). GPR120 activation can also trigger intracellular signaling via recruitment of Beta-Arrestin. In the present method, agonist-induced activation of the human GPR120 receptor is monitored through the use of PathHunter® CHO-K1 GPR120 Beta-Arrestin Cell Line engineered by DiscoveRx, as detailed below. The cell lines are designed to co-express both the ProLink/Enzyme Donor (PK)-tagged GPCR and the Enzyme […] (EA)-tagged Beta-Arrestin fusion proteins. Upon GPR120 receptor stimulation/activation, the EA-tagged Beta-Arrestin portion is translocated to the tagged receptor, where the two enzyme fragments are brought within close proximity. Under these conditions, these fragments can interact and form an active Beta-gal enzyme complex through Enzyme Fragment Complementation (EFC). This active Beta-gal complex can enzymatically hydrolyse the substrate to produce a detectable light signal; therefore, activation as a function of agonist concentration can be expressed as an EC50 value to determine relative compound activities. This in vitro assay therefore serves to assess compound agonist activity of the GPR120.
In Procedure β-arrestin B the cells used were PathHunter® CHO-K1 GPR120S β-Arrestin Cell Line, expressing the short form of the GPR120 receptor (Accession #[…]), with 5000 cells/well.
The selected CHO-K1 GPR120 β-Arrestin cells were cultured in Ham's F12 media supplemented with 10% fetal bovine serum (FBS), 1% Glutamine, 1×p/s, 800 μg/mL G418 and 300 μg/mL Hygromycin B (for selection). Cell stocks were maintained and grown in a sub-confluent state using standard cell culture procedures. The day before the experiment, the cells were harvested with non-enzymatic cell dissociation buffer and re-suspended in complete growth media at the desired concentration. A Corning 384-plate was then seeded with the proper number of cells in a volume of 25 μL, per well. The seeded plates were incubated overnight at 37° C.
On the day of the experiment, the Assay Buffer containing (a) HBSS with Ca^++ and Mg^++, (b) 20 mM HEPES, and (c) 0.1% BSA stabilizer (pH 7.4) was prepared. The growth medium was gently removed from the cell plates and 20 μL of Assay Buffer added to each well. The plate was then incubated at 37° C. for 60 min. Test compounds were serially diluted in Assay Buffer to desired concentrations (more particularly to one or more of the following μM concentrations: 25, 12.5, 6.25, 3.12, 1.56, 0.78, 0.39, 0.19, 0.10, 0.05, 0.02, 0.01). Five μL of compound dilution was then added to each well and the plate incubated at 37° C. for 90 min. The detection reagents were prepared according to the manufacture's instruction. Twelve μL of the detection reagents were added to each well and the plate incubated at room temperature for 60 min.
The plates were read on an EnVision instrument, using Protocol name: Luminescence, Plate type: 384 Costar, Measurement height: 3 mm, Measurement time: 1 s, Aperture: 384 Plate aperture. The % Activity relative to the positive control was calculated using the following equation:
The % Activity values were plotted versus the concentration of test compound and fitted to a sigmoidal dose-response curve with a Hill slope=1 (fixed value) using nonlinear regression with GraphPad Prism 5.0 to calculate the EC50 values. The Fitting Equation was: Y=Bottom+(Top-Bottom)/(1+10^((Log EC50−X)*HillSlope)), where X is the log of the concentration and Y is the response.

Human GPR120 short form [2] = target: T2, Human GPR120 short form (Homo sapiens, UniProt Q5NUL3); test: Human GPR120 calcium flux assay, Procedure Calcium B (4200 cells/well)
T2 construct: expressed in transfected cells
T2 sequence (Q5NUL3 1-361): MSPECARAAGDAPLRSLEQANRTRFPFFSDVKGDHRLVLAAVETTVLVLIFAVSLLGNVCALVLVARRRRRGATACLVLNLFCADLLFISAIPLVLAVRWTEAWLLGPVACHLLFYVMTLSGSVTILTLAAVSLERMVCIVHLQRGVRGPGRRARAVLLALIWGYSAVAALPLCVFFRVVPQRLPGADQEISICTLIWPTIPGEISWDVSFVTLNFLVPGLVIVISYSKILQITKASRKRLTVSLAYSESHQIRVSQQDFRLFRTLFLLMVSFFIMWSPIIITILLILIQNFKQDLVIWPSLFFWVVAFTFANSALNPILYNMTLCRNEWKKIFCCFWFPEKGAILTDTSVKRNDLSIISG
Method in brief: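 HEK293 cells stably expressing human GPR120 (NM_001195755.1), 4200 cells/well, starved 1 h and loaded with Fluo-4 NW plus probenecid. Ligand-evoked calcium flux read on FLIPR for 300 s after a 10 s baseline. RFU = Fmax−Fmin; EC50 from four-parameter concentration-response fit.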

human GPR40 = target: T3, human GPR40 (Homo sapiens, UniProt O14842); test: GPR40 calcium flux assay, human GPR40; conditions: HEK293 cells stably expressing GPR40; table does not say human or rat
T3 construct: expressed in transfected cells
T3 sequence (O14842 whole entry): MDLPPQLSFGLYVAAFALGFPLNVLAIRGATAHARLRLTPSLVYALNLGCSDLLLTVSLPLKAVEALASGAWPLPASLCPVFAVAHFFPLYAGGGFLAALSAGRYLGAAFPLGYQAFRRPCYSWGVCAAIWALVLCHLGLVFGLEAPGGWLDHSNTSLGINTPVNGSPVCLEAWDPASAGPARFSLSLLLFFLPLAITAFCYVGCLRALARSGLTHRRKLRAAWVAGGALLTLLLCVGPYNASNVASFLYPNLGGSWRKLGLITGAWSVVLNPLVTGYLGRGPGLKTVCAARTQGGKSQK
Method in brief: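 Cells preincubated 1 h at 37° C. in HBSS, 20 mM HEPES, 0.1% BSA, then Fluo 8 calcium dye 30 min at 37° C. and 15 min at room temperature.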

[3] = target: T4, long form of human GPR120 (Homo sapiens, UniProt Q5NUL3); test: Human GPR120 DiscoveRx PathHunter Beta-Arrestin assay, Procedure β-arrestin A
T4 construct: host or cells: PathHunter CHO-K1 GPR120 β-Arrestin Cell Line
T4 sequence (Q5NUL3 1-377 isoform Q5NUL3-1): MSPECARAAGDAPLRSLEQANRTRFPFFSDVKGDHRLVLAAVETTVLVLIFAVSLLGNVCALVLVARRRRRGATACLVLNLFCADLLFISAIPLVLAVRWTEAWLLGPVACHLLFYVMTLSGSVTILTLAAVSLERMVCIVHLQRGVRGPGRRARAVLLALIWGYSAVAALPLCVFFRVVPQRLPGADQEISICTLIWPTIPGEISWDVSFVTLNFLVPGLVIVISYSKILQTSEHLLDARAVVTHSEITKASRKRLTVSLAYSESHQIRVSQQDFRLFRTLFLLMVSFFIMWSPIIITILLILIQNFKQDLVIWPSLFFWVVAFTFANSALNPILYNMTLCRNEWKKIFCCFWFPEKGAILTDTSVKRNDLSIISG
T4 sequence (P32121 whole entry partner): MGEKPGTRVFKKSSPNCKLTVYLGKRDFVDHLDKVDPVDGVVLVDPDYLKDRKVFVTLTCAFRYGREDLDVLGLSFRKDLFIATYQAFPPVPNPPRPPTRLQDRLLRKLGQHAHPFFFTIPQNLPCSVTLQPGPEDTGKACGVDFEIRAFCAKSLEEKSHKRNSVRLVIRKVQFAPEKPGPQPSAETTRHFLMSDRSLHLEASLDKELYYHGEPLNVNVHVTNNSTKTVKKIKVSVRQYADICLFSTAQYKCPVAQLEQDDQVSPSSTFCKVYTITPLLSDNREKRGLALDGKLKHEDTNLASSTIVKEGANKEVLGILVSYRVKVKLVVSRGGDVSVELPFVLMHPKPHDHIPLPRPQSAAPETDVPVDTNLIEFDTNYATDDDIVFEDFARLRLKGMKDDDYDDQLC
Method in brief: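 PathHunter CHO-K1 cells expressing long-form human GPR120 (3000/well) were seeded overnight. They were then preincubated 60 min in HBSS with 20 mM HEPES and 0.1% BSA, pH 7.4, and exposed to compound for 90 min at 37 °C. β-Arrestin recruitment was read as β-gal complementation luminescence. EC50 came from % activity versus positive control, Hill slope fixed at 1.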

Human GPR120 short form [4] = target: T2, Human GPR120 short form; test: Human GPR120 calcium flux assay, Procedure Calcium A (2500 cells/well)
Excerpt: Human GPR120 in Calcium Flux Assay
This in vitro assay serves to assess test compound agonist activity against the short splice variant (SVS with Accession number NM_001195755.1 confirmed by sequencing data) of the GPR120 receptor. The Human Short splice variant #2 (NM_001195755.1) is missing an in-frame coding exon compared to variant 1 (the Human Long splice variant NM_181745.3), resulting in a shorter isoform (GPR120-S) lacking a 16 aa protein segment compared to isoform GPR120-L. The assay platform utilizes HEK-293 cells stably transfected to express the Human GPR120 short form. These cells are first loaded with the Ca^+2 sensitive dye, Fluo-4 NW. Upon stimulation, intracellular released Ca^+2 can bind to the dye and alter its fluorescence intensity. This increase in fluorescence signal, and thus the flux in intracellular [Ca^2+], is detected and quantitated by fluorescence imaging using a FLIPR reader. The effect of the agonist is measured as a function of concentration and used to calculate an EC50 based upon a response curve.
In this procedure 2500 cells/well were employed.
A Human GPR120 clone (Genbank accession number NM_001195755.1) was placed into the pcDNA3.1 mammalian expression vector carrying the neomycin resistance gene. A stable mammalian cell was generated by placing the above clone into a HEK293 background. Clonal cells responding to long chain fatty acids had expression levels of GPR120 confirmed by RT-qPCR. Human HEK-GPR120 cells were cultured in Dulbecco's Modified Eagle's Medium (DMEM)/F12 medium supplemented with 10% fetal bovine serum (FBS), 1% L-Glutamine and 1% penicillin/streptomycin and 0.5 mg/ml G-418. Cells were split 2 times a week to keep the cells in the log-phase growth.
In preparation for the assay, HEK cells stably transfected with Human GPR120 (2.5K cells per well in 25 uL growth medium) were seeded into 384-well plates and then incubated overnight (37° C., 5% CO2). The next day, the media was changed to 20 μL assay buffer and the cell starved for 1 h at 37° C. The dye loading solution (2× dye) was prepared using 10 mL assay buffer, 100 μL of 250 mM probenecid, 1 bottle of Component A, and 20 μl of dye in DMSO. Twenty μL of the 2× dye loading buffer was then added to each well. The plates were incubated at 37° C. for 30 min, then at room temperature for an additional 15 minutes, before performing the assay on FLIPR.
The assay was performed on a FLIPR plate reader using the following parameters. Baseline was read for 10 seconds at 1 sec intervals. The program was set to transfer 10 μL of ligand from compound plate to cell plate after baseline reading. Aspiration was executed at: 10 μL/sec speed, 4.6 μL height, Dispensing was executed at: 30 μL/sec speed, 45 μL height. After compound addition, each well was read for 300 sec, with measurements collected at 1 sec intervals.
The kinetic data from the FLIPR was based upon a 5 minute window for data collection. The fluorescence of each sample well was used for individual calculations of a normalized RFU value, which was defined as maximum response minus the minimum response. The normalized fluorescence reading (RFU) was calculated as follows: RFU=Fmax−Fmin
The Fitting Equation was: Y=Bottom+(Top-Bottom)/(1+10^((Log EC50−X)*HillSlope)), where X is the log of the concentration and Y is the response.

T1 sequence (P32121 whole entry partner, one chain of several): as the sequence (P32121 whole entry partner) above

Compound	EC50 [1]	EC50 (Human GPR120 short form [2])	EC50 (human GPR40)	EC50 [3]	EC50 (Human GPR120 short form [4])
O=C(O)CCc1ccc(OCC2=C(c3ccc(Cl)cc3)CCC2C(F)(F)F)c(F)c1F (stereo not drawn) [Compound 32, 3-[4-[[2-(4-chlorophenyl)-5-(trifluoromethyl)cyclopenten-1-yl]methoxy]-2,3-difluoro-phenyl]Propanoic Acid]	203 nM	311 nM	> 5000 nM	341 nM	
Cc1ccc(C2=C(COc3ccc(CCC(=O)O)c(F)c3F)CCC2)cn1 [Compound 87, 3-(2,3-difluoro-4-((2-(6-methylpyridin-3-yl)cyclopent-1-en-1-yl)methoxy)phenyl)Propanoic Acid]	493 nM		> 5000 nM		
O=C(O)CCc1ccc(OCC2=C(c3ccc(Cl)cc3)CCC2)c(Br)c1 [Compound 129, 3-[3-bromo-4-[[2-(4-chlorophenyl)cyclopenten-1-yl]methoxy]phenyl]Propanoic Acid]	47 nM	21 nM	> 5000 nM		
O=C(O)CCc1ccc(OCC2=C(c3ccc(Cl)cc3)CCCC2)cc1F [Compound 504, 3-[4-[[2-(4-chlorophenyl)cyclohexen-1-yl]methoxy]-2-fluoro-phenyl]Propanoic Acid]		330 nM	4020 nM		2820 nM
Cc1cc(OCC2=C(c3ccc(Cl)cc3)CCCC2)ccc1CCC(=O)O [Compound 506, 3-[4-[[2-(4-chlorophenyl)cyclohexen-1-yl]methoxy]-2-methyl-phenyl]Propanoic Acid]		182 nM	> 5000 nM		1590 nM
Cc1c(CCC(=O)O)ccc(OCC2=C(c3ccc(C(C)C)cc3)CCCC2)c1C [Compound 516, 3-[4-[[2-(4-isopropylphenyl)cyclohexen-1-yl]methoxy]-2,3-dimethyl-phenyl]Propanoic Acid]		755 nM	> 5000 nM		4610 nM
Cc1c(CCC(=O)O)ccc(OCC2=C(c3ccc(C#N)cc3)CCCC2)c1C [Compound 520, 3-[4-[[2-(4-cyanophenyl)cyclohexen-1-yl]methoxy]-2,3-dimethyl-phenyl]Propanoic Acid]		1450 nM	> 5000 nM		2360 nM

Second part, the molecule after the results:

EC50 [1]	EC50 (Human GPR120 short form [2])	EC50 (human GPR40)	EC50 [3]	EC50 (Human GPR120 short form [4])	Compound
93 nM	481 nM	> 5000 nM			Cc1c(CCC(=O)O)ccc(OCC2=C(c3ccc(Cl)cc3)CCC2C(F)(F)F)c1C (stereo not drawn) [Compound 12, 3-[4-[[2-(4-chlorophenyl)-5-(trifluoromethyl)cyclopenten-1-yl]methoxy]-2,3-dimethyl-phenyl]Propanoic Acid]
180 nM	288 nM	> 5000 nM	312 nM		O=C(O)CCc1cc(F)c(OCC2=C(c3ccc(Cl)cc3)CCC2C(F)(F)F)c(F)c1 (stereo not drawn) [Compound 33, 3-[4-[[2-(4-chlorophenyl)-5-(trifluoromethyl)cyclopenten-1-yl]methoxy]-3,5-difluoro-phenyl]Propanoic Acid]
190 nM	110 nM	> 5000 nM	256 nM		Cc1c(CCC(=O)O)ccc(OCC2=C(c3ccc(F)c(F)c3)CCC2)c1C [Compound 117]
1250 nM		> 5000 nM			Cc1ccc(C2=C(COc3c(F)cc(CCC(=O)O)cc3F)CCC2)cc1N [Compound 135, 3-(4-((2-(3-amino-4-methylphenyl)cyclopent-1-en-1-yl)methoxy)-3,5-difluorophenyl)Propanoic Acid]
371 nM	331 nM				CC(Cc1ccc(OCC2=C(c3ccc(F)cc3)CCC2)c(F)c1)C(=O)O (stereo not drawn) [Compound 458, 3-(3-fluoro-4-((2-(4-fluorophenyl)cyclopent-1-en-1-yl)methoxy)phenyl)-2-methylpropanoic Acid]
	626 nM	> 5000 nM		1280 nM	Cc1ccc(C2=C(COc3ccc(CCC(=O)O)c(C)c3C)CCCC2)cn1 [Compound 521]
